Measurements reported in PubChem BioAssay AID248 (DTP/NCI, 2004).
Where “and” joins values, the source holds several entries; their conditions need not be identical. Equal entries are not always repeated. Toxic doses and inconclusive results are not listed.

System: L1210 leukemia ip in BDF1 mice, survival T/C
Test: NCI In Vivo Anticancer Drug Screen. Data for tumor model L1210 Leukemia (intraperitoneal) in B6D2F1 (BDF1) mice
Conditions: endpoint: mean survival time, higher = longer survival
How it was run: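 In this screen, tumor-bearing mice given compound are compared to those given vehicle, and their survival values are reported as a treated-to-control quotient.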

`O=NN(CCCl)C(=O)N[C@H]1CCCC[C@@H]1Cl` was tested, and the T/C (dose: 27.5 mg/kg/injection, schedule: Q01DX001 (oral), vehicle: other) was 263 % of control and 297 % of control, the T/C (dose: 27.5 mg/kg/injection, schedule: Q## X001 (oral), vehicle: other) was 438 % of control and the T/C (dose: 28.0 mg/kg/injection, schedule: Q## X001 (oral), vehicle: other) was 340 % of control. The T/C (dose: 30.0 mg/kg/injection, schedule: Q01DX005 (ip), vehicle: other) was 203 % of control, the T/C (dose: 30.0 mg/kg/injection, schedule: Q01DX005 (oral), vehicle: other) was 255 % of control and the T/C (dose: 30.0 mg/kg/injection, schedule: Q01DX009 (ip), vehicle: other) was 121 % of control. The T/C (dose: 30.0 mg/kg/injection, schedule: Q01DX009 (sc), vehicle: other) was 200 % of control, the T/C (dose: 30.0 mg/kg/injection, schedule: Q## X003 (ip), vehicle: other) was 357 % of control and the T/C (dose: 30.0 mg/kg/injection, schedule: Q## X003 (oral), vehicle: other) was 452 % of control. For the same compound, the T/C (dose: 30.5 mg/kg/injection, schedule: Q01DX001 (ip), vehicle: carboxymethylcellulose (CMC)) was 303 % of control, the T/C (dose: 30.5 mg/kg/injection, schedule: Q01DX001 (ip), vehicle: other) was 186 % of control and 230 % of control and the T/C (dose: 30.5 mg/kg/injection, schedule: Q## X001 (ip), vehicle: other) was 205 % of control. The T/C (dose: 30.5 mg/kg/injection, schedule: Q## X004 (ip), vehicle: other) was 525 % of control, the T/C (dose: 34.0 mg/kg/injection, schedule: Q02DX008 (ip), vehicle: other) was 285 % of control and 398 % of control and the T/C (dose: 36.0 mg/kg/injection, schedule: Q01DX001 (ip), vehicle: carboxymethylcellulose (CMC)) was 259 % of control. The T/C (dose: 40.0 mg/kg/injection, schedule: Q01DX001 (ip), vehicle: carboxymethylcellulose (CMC)) was 235 % of control and 238 % of control, the T/C (dose: 41.0 mg/kg/injection, schedule: Q01DX001 (ip), vehicle: other) was 590 % of control and the T/C (dose: 41.0 mg/kg/injection, schedule: Q## X001 (oral), vehicle: other) was 403 % of control. The T/C (dose: 45.6 mg/kg/injection, schedule: Q## X004 (ip), vehicle: other) was 289 % of control and 481 % of control, the T/C (dose: 46.0 mg/kg/injection, schedule: Q01DX001 (ip), vehicle: carboxymethylcellulose (CMC)) was 329 % of control and the T/C (dose: 48.0 mg/kg/injection, schedule: Q01DX001 (ip), vehicle: other) was 384 % of control. The T/C (dose: 48.0 mg/kg/injection, schedule: Q01DX001 (oral), vehicle: other) was 476 % of control, the T/C (dose: 48.0 mg/kg/injection, schedule: Q01DX001 (sc), vehicle: other) was 382 % of control and the T/C (dose: 48.0 mg/kg/injection, schedule: Q## X008 (oral), vehicle: other) was 471 % of control. The T/C (dose: 48.0 mg/kg/injection, schedule: Q## X024 (oral), vehicle: other) was 448 % of control, the T/C (dose: 54.4 mg/kg/injection, schedule: Q## X032 (ip), vehicle: other) was 377 % of control and the T/C (dose: 55.0 mg/kg/injection, schedule: Q01DX001 (oral), vehicle: other) was 174 % of control and 245 % of control. For the same compound, the T/C (dose: 55.0 mg/kg/injection, schedule: Q## X001 (oral), vehicle: other) was 204 % of control, the T/C (dose: 60.0 mg/kg/injection, schedule: Q01DX001 (ip), vehicle: carboxymethylcellulose (CMC)) was 296 % of control and 304 % of control and 329 % of control and the T/C (dose: 60.0 mg/kg/injection, schedule: Q01DX009 (sc), vehicle: other) was 95 % of control. The T/C (dose: 60.0 mg/kg/injection, schedule: Q## X003 (ip), vehicle: other) was 105 % of control, the T/C (dose: 61.0 mg/kg/injection, schedule: Q01DX001 (ip), vehicle: carboxymethylcellulose (CMC)) was 329 % of control and the T/C (dose: 61.0 mg/kg/injection, schedule: Q## X001 (ip), vehicle: other) was 320 % of control and 527 % of control. The T/C (dose: 68.0 mg/kg/injection, schedule: Q## X004 (ip), vehicle: other) was 180 % of control and 221 % of control, the T/C (dose: 91.5 mg/kg/injection, schedule: Q01DX001 (ip), vehicle: carboxymethylcellulose (CMC)) was 164 % of control and the T/C (dose: 91.5 mg/kg/injection, schedule: Q01DX001 (ip), vehicle: other) was 237 % of control and 491 % of control. The T/C (dose: 93.0 mg/kg/injection, schedule: Q01DX001 (ip), vehicle: carboxymethylcellulose (CMC)) was 108 % of control, the T/C (dose: 96.0 mg/kg/injection, schedule: Q01DX001 (ip), vehicle: other) was 96 % of control and the T/C (dose: 96.0 mg/kg/injection, schedule: Q01DX001 (sc), vehicle: other) was 420 % of control. For the same compound, the T/C (dose: 96.0 mg/kg/injection, schedule: Q## X008 (oral), vehicle: other) was 225 % of control and the T/C (dose: 120.0 mg/kg/injection, schedule: Q## X003 (oral), vehicle: other) was 102 % of control.
